# Assay results reported in patent US20050228052A1, “Methods of treating, preventing and managing a sleep disorder using (S)-didesmethylsibutramine” (priority 2004, published 2005).
# Like-named read-outs stand apart in the source and are kept apart here.
# Experiments:
# [1] = target: serotonin (5-HT) uptake site (Rattus norvegicus, UniProt P31652); details: summary of the table data
# Description: IC50 values (concentration required to inhibit 50% specific binding) were then determined by nonlinear regression analysis of the curves and tabulated below.
# [2] = target: T1, human recombinant norepinephrine (NE) uptake site (Homo sapiens, UniProt P23975); assay: Binding at the norepinephrine (NE) uptake site
# T1 construct: expressed in transfected cells
# [3] = system: nonselective muscarinic receptor; assay: Binding at the nonselective muscarinic receptor; parameters: species or system rat
# T1 sequence (P23975 whole entry): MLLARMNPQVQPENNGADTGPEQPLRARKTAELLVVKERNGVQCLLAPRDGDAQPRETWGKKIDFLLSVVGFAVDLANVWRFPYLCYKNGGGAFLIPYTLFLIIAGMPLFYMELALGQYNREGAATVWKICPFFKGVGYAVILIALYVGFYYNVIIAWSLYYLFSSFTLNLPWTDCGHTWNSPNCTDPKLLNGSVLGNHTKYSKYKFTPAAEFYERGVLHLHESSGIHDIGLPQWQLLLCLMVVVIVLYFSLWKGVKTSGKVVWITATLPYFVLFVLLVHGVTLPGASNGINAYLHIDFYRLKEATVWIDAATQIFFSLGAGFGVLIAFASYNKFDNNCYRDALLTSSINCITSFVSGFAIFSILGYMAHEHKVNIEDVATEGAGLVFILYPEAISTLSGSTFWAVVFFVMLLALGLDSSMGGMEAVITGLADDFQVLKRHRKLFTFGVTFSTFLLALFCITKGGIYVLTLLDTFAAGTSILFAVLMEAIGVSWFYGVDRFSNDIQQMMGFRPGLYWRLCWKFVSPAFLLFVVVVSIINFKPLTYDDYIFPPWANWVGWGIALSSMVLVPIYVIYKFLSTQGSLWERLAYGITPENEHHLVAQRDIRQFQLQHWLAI
# Sequence of serotonin (5-HT) uptake site (P31652 whole entry): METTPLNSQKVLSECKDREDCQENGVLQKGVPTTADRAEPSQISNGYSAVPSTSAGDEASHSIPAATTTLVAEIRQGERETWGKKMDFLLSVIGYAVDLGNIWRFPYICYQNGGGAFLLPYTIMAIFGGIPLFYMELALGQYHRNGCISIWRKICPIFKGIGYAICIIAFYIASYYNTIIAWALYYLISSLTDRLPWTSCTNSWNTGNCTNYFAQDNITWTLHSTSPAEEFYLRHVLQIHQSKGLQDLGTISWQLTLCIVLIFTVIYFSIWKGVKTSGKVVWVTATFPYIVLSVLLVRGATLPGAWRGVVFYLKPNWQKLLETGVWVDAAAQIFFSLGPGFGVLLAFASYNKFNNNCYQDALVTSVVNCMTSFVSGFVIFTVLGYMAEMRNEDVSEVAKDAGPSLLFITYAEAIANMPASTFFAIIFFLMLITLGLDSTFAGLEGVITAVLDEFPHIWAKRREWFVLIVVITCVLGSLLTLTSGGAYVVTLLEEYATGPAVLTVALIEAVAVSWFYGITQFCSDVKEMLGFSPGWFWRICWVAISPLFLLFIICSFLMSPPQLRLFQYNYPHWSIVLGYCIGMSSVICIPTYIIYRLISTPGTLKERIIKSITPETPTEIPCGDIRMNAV
structure (smiles),measurement,setting,value
"CC(C)C[C@H](N)C1(c2ccc(Cl)cc2)CCC1 [(S)-DDMS, 1-[1-(4-chlorophenyl)cyclobutyl]-3-methyl-butylamine]","5-HT uptake site binding, result in words",[1],without appreciable 5-HT or muscarinic activity
same,IC50,[2],6.2 nM
same,"NE uptake site binding, result in words",[2]; summary of the table data,potent inhibitor of NE uptake
same,"Affinity for the muscarinic site, result in words",[3]; summary of the table data,without appreciable 5-HT or muscarinic activity
CC(C)CC(N)C1(c2ccc(Cl)cc2)CCC1 (racemic) [(R/S)-DDMS],IC50,"[2]; human recombinant NE uptake site, single value or first value before slash, read-out: Binding IC50 Values (nM) NE Uptake",16 nM
"CN1[C@@H]2CC[C@H]1C[C@@H](OC(=O)C(CO)c1ccccc1)C2 (stereo partly shown) [Atropine, reference compound]",IC50,"[3]; rat cerebral cortex, inhibition of specific binding, competition curves, read-out: Binding IC50 Values (nM) Mucarinic Receptor",0.31 nM
CC(C)C[C@@H](N)C1(c2ccc(Cl)cc2)CCC1 [(R)-DDMS],IC50,[2],13 nM
